Where two headings read alike, the source gives them in different places.
Tests used:
[1] = system: anesthetized rats (evoked responses of anterior tibial muscle); assay: In vivo neuromuscular block and cardiovascular side effects, anesthetized rat (Example 8, Table 3); conditions: for RI (recovery index): spontaneous recovery, 25-75% neuromuscular response; for Onset: time to 80-85% neuromuscular block
Summary of the method: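 Pentobarbital-anesthetized (i.p.), ventilated adult male rats given saline-dissolved agents i.v.; anterior tibial EMG responses to supramaximal single or train-of-four sciatic/peroneal stimuli, plus 0.1 or 1 Hz stimulation. Doses for 50%, 80%, 90% block derived. Onset: minutes to 80-85% block; RI: 25-75% spontaneous recovery; vagal block, heart rate and blood pressure changes (%) at 80-85% blocking dose.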

[2] = system: anesthetized cats (evoked responses of anterior tibial muscle); assay: animal or person; conditions: for RI (recovery index): spontaneous recovery, 25-75% neuromuscular response; for Onset: time to 80-85% neuromuscular block
From the text: a) Adult, male albino rats were anesthetized with pentobarbital injected intraperitoneally. The trachea was cannulated for artificial respiration via a small animal respirator. The carotid artery was cannulated for recording blood pressure via a transducer and heart rate by a cardiotachograph on a polygraph. One external jugular vein was cannulated for i.v. drug administration. Neuromuscular function was monitored by electromyography, recording evoked responses from the anterior tibial muscle as a result of supramaximal nerve stimuli consisting of single or “train-of-four” rectangular pulses of 0.1-0.2 msec duration every 10-12 seconds, delivered to the sciatic or common peroneal nerve by a laboratory nerve stimulator. Another mode of stimulation included repeated single stimuli delivered at 0.1 Hz or 1 Hz. […] The agents were dissolved in physiologic saline and injected intravenously at appropriate time intervals. The intensity, onset, and duration of neuromuscular block and its type were determined with each agent. Through administering several doses, the doses corresponding to 50%, 80% and 90% neuromuscular block were determined. All agents were compared with selected standard neuromuscular blocking compounds, e.g. succinylcholine, pancuronium, mivacurium, or rocuronium.
Onset=time in minutes to 80-85% neuromuscular block.
RI=recovery index, minutes, spontaneous recovery, 25-75% neuromuscular response.
VB=vagal block, %, at 80-85% neuromuscular blocking dose.
ΔHR=change in heart rate, %, at 80-85% neuromuscular blocking dose.
ΔBP=change in arterial blood pressure, %, at 80-85% neuromuscular blocking dose.
b) Adult cats were anesthetized with a mixture of 70 mg/kg alpha chloralose and 0.5 g/kg ethylurethane intraperitoneally. One thigh was fixed in a vertical position by means of a pin at the lower end of the femur. Needle electrodes were placed on the sciatic or the common peroneal nerve. A tendon of the anterior tibial muscle was attached to a force transducer and the muscle responses evoked, as described under a), were recorded. Both electromyographic and mechanomyographic responses can be quantified. Blood pressure and heart rate changes were recorded from appropriately cannulated arteries via a blood pressure transducer and cardiotachograph.

[3] = system: anesthetized juvenile pigs; assay: animal or person; format: in vivo; conditions: pig; for ED50: intravenous dose causing 50% neuromuscular block; for RI (recovery index): spontaneous recovery, 25-75% neuromuscular response; for Onset: time to 80-85% neuromuscular block
Summary of the method: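 Electromyographic and mechanomyographic responses quantified. Monkeys sedated with intramuscular ketamine, then general anesthesia with intravenous pentobarbital and propofol; juvenile pigs induced with inhaled halothane.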

anesthetized monkeys = assay: In vivo neuromuscular block and cardiovascular side effects, monkey (Example 8, Table 6); conditions: for ED50: intravenous dose causing 50% neuromuscular block; for RI (recovery index): spontaneous recovery, 25-75% neuromuscular response; for Onset: time to 80-85% neuromuscular block
From the text: Both electromyographic and mechanomyographic responses can be quantified.
The techniques described under a) and b) were employed in other species as needed with the modification that juvenile pigs were initially anesthetized with inhalation of halothane (Table 5) and monkeys were initially sedated with intramuscular ketamine injections prior to inducing and maintaining general anesthesia using pentobarbital and propofol administered intravenously (Table 6).

rabbits = assay: In vivo neuromuscular block and cardiovascular side effects, rabbit (Example 8, Table 7); conditions: for ED50: intravenous dose causing 50% neuromuscular block; for RI (recovery index): spontaneous recovery, 25-75% neuromuscular response; for Onset: time to 80-85% neuromuscular block
dogs = assay: animal or person; format: in vivo; conditions: dog; for ED50: intravenous dose causing 50% neuromuscular block; for RI (recovery index): spontaneous recovery, 25-75% neuromuscular response; for Onset: time to 80-85% neuromuscular block
[4] = rat, at 80-85% neuromuscular blocking dose
[5] = cat, at 80-85% neuromuscular blocking dose
[6] = at 80-85% neuromuscular blocking dose
[7] = Oryctolagus cuniculus, read-out: ED50
[8] = Canis lupus familiaris, read-out: ED50
[9] = rat, intravenous dose causing 50% neuromuscular block
[10] = cat, intravenous dose causing 50% neuromuscular block

COc1cc(C[N+]2(C)[C@@H]3CC[C@H]2C[C@@H](OC(=O)C2CCCC(C(=O)O[C@H]4C[C@H]5CC[C@@H](C4)[N+]5(C)Cc4ccc(OC(C)=O)c(OC)c4)C2)C3)ccc1OC(C)=O.[Br-].[Br-] (stereo partly drawn) [bis[N-(4-acetoxy-3-methoxybenzyl)tropanium-3α-yl]cyclohexane-1,3-dicarboxylate dibromide]
ED50 ([1]; Rattus norvegicus, iv): 0.27 mg/kg | VB (vagal block) [1, 4]: 30% | ΔBP (change in arterial blood pressure) [1, 4]: 0% | ΔH (change in heart rate) [1, 4]: 0% | RI (recovery index) ([1]; rat): 0.45 min | Onset ([1]; rat): 0.55 min | ED50 ([2]; Felis catus, iv): 0.325 mg/kg | VB (vagal block) [2, 5]: 33% | ΔBP (change in arterial blood pressure) [2, 5]: −5% | ΔH (change in heart rate) [2, 5]: 0% | RI (recovery index) ([2]; cat): 0.5 min | Onset ([2]; cat): 0.9 min | ED50 ([3]; Sus scrofa, read-out: ED50): 0.183 mg/kg | VB (vagal block) [3, 6]: 65% | ΔBP (change in arterial blood pressure) [3, 6]: 0% | ΔH (change in heart rate) [3, 6]: 0% | RI (recovery index) [3]: 0.75 min | Onset [3]: 0.6 min | ED50 (anesthetized monkeys; Primates, read-out: ED50): 0.1 mg/kg | ΔBP (change in arterial blood pressure) (anesthetized monkeys; [6]): 0% | ΔH (change in heart rate) (anesthetized monkeys; [6]): 0% | RI (recovery index) (anesthetized monkeys): 0.5 min | Onset (anesthetized monkeys): 0.9 min | ED50 (rabbits; [7]): 0.165 mg/kg | ΔBP (change in arterial blood pressure) (rabbits; [6]): 0% | ΔH (change in heart rate) (rabbits; [6]): 0% | RI (recovery index) (rabbits): 0.65 min | Onset (rabbits): 0.65 min | ED50 (dogs; [8]): 0.28 mg/kg | ΔBP (change in arterial blood pressure) (dogs; [6]): −25% | ΔH (change in heart rate) (dogs; [6]): 38% | RI (recovery index) (dogs): 0.5 min | Onset (dogs): 0.75 min

COc1cc(C[N+]2(C)C3CCC2CC(OC(=O)C2C4C=CC(C4)C2C(=O)OC2CC4CCC(C2)[N+]4(C)Cc2ccc(OC(C)=O)c(OC)c2)C3)ccc1OC(C)=O.[Br-].[Br-] (stereo not drawn) [bis[N-(4-acetoxy-3-methoxybenzyl)tropanium-3α-yl]trans-3,6-endomethylene-1,2,3,6-tetrahydrophthalate dibromide]
VB (vagal block) [1, 4]: 25% | ΔBP (change in arterial blood pressure) [1, 4]: 0% | ΔH (change in heart rate) [1, 4]: 0% | ED50 [1, 9]: 0.15 mg/kg | RI (recovery index) ([1]; rat): 0.5 min | Onset ([1]; rat): 0.55 min | ED50 [2, 10]: 0.193 mg/kg | RI (recovery index) ([2]; cat): 0.4 min | Onset ([2]; cat): 0.7 min | VB (vagal block) ([2]; in vivo): 20% | ΔBP (change in arterial blood pressure) ([2]; in vivo): 0% | ΔH (change in heart rate) ([2]; in vivo): 5% | VB (vagal block) ([3]; in vivo): 43% | ΔBP (change in arterial blood pressure) ([3]; in vivo): 0% | ΔH (change in heart rate) ([3]; in vivo): 0% | ED50 [3]: 0.19 mg/kg | RI (recovery index) [3]: 1 min | Onset [3]: 0.6 min | ΔBP (change in arterial blood pressure) (anesthetized monkeys; in vivo): 0% | ΔH (change in heart rate) (anesthetized monkeys; in vivo): 0% | ED50 (anesthetized monkeys): 0.055 mg/kg | RI (recovery index) (anesthetized monkeys): 0.5 min | Onset (anesthetized monkeys): 0.85 min | ΔBP (change in arterial blood pressure) (rabbits; in vivo): 0% | ΔH (change in heart rate) (rabbits; in vivo): 0% | ED50 (rabbits): 0.155 mg/kg | RI (recovery index) (rabbits): 0.65 min | Onset (rabbits): 0.65 min | ΔBP (change in arterial blood pressure) (dogs; in vivo): −25% | ΔH (change in heart rate) (dogs; in vivo): 40% | ED50 (dogs): 0.35 mg/kg | RI (recovery index) (dogs): 0.5 min | Onset (dogs): 0.63 min

CC(=O)Oc1ccc(C[N+]2(C)C3CCCC2CC(OC(=O)CCCC(=O)OC2CC4CCCC(C2)[N+]4(C)Cc2ccc(OC(C)=O)c(OC(C)=O)c2)C3)cc1OC(C)=O.[Br-].[Br-] (stereo not drawn) [bis[N-(3,4-diacetoxybenzyl)granataninium-3-yl]glutarate dibromide]
VB (vagal block) ([1]; rat, in vivo): 0% | ΔBP (change in arterial blood pressure) ([1]; rat, in vivo): 0% | ΔH (change in heart rate) ([1]; rat, in vivo): 0% | ED50 [1, 9]: 0.17 mg/kg | RI (recovery index) ([1]; rat): 0.45 min | Onset ([1]; rat): 0.6 min | ED50 [2, 10]: 0.7 mg/kg | RI (recovery index) ([2]; cat): 0.4 min | Onset ([2]; cat): 0.7 min | VB (vagal block) ([2]; in vivo): 60% | ΔBP (change in arterial blood pressure) ([2]; in vivo): −50% | ΔH (change in heart rate) ([2]; in vivo): 0% | VB (vagal block) ([3]; in vivo): 40% | ΔBP (change in arterial blood pressure) ([3]; in vivo): 0% | ΔH (change in heart rate) ([3]; in vivo): 0% | ED50 [3]: 0.235 mg/kg | RI (recovery index) [3]: 0.9 min | Onset [3]: 0.8 min | ΔBP (change in arterial blood pressure) (anesthetized monkeys; in vivo): 0% | ΔH (change in heart rate) (anesthetized monkeys; in vivo): 0% | ED50 (anesthetized monkeys): 0.075 mg/kg | RI (recovery index) (anesthetized monkeys): 0.4 min | Onset (anesthetized monkeys): 0.7 min | ΔBP (change in arterial blood pressure) (rabbits; in vivo): 0% | ΔH (change in heart rate) (rabbits; in vivo): 0% | ED50 (rabbits): 0.165 mg/kg | RI (recovery index) (rabbits): 0.55 min | Onset (rabbits): 0.65 min | ΔBP (change in arterial blood pressure) (dogs; in vivo): −18% | ΔH (change in heart rate) (dogs; in vivo): 50% | ED50 (dogs): 0.225 mg/kg | RI (recovery index) (dogs): 0.6 min | Onset (dogs): 0.65 min

CC(=O)Oc1ccc(C[N+]2(C)[C@@H]3CC[C@H]2C[C@@H](OC(=O)C2CCCC(C(=O)O[C@H]4C[C@H]5CC[C@@H](C4)[N+]5(C)Cc4ccc(OC(C)=O)c(OC(C)=O)c4)C2)C3)cc1OC(C)=O.[Br-].[Br-] (stereo partly drawn) [bis[N-(3,4-diacetoxybenzyl)tropanium-3α-yl]cyclohexane-1,3-dicarboxylate dibromide]
ED50 ([1]; Rattus norvegicus, iv): 0.24 mg/kg | VB (vagal block) [1, 4]: 28% | ΔBP (change in arterial blood pressure) [1, 4]: 0% | ΔH (change in heart rate) [1, 4]: 0% | RI (recovery index) ([1]; rat): 0.5 min | Onset ([1]; rat): 0.65 min | ED50 ([2]; Felis catus, iv): 0.11 mg/kg | VB (vagal block) [2, 5]: 34% | ΔBP (change in arterial blood pressure) [2, 5]: −25% | ΔH (change in heart rate) [2, 5]: −12% | RI (recovery index) ([2]; cat): 0.5 min | Onset ([2]; cat): 0.8 min | ED50 ([3]; Sus scrofa, read-out: ED50): 0.225 mg/kg | VB (vagal block) [3, 6]: 54% | ΔBP (change in arterial blood pressure) [3, 6]: 0% | ΔH (change in heart rate) [3, 6]: 0% | RI (recovery index) [3]: 0.85 min | Onset [3]: 0.8 min | ED50 (anesthetized monkeys; Primates, read-out: ED50): 0.075 mg/kg | ΔBP (change in arterial blood pressure) (anesthetized monkeys; [6]): 0% | ΔH (change in heart rate) (anesthetized monkeys; [6]): 0% | RI (recovery index) (anesthetized monkeys): 0.65 min | Onset (anesthetized monkeys): 0.95 min | ED50 (rabbits; [7]): 0.1 mg/kg | ΔBP (change in arterial blood pressure) (rabbits; [6]): 0% | ΔH (change in heart rate) (rabbits; [6]): 0% | RI (recovery index) (rabbits): 0.7 min | Onset (rabbits): 0.9 min | ED50 (dogs; [8]): 0.128 mg/kg | ΔBP (change in arterial blood pressure) (dogs; [6]): −5% | ΔH (change in heart rate) (dogs; [6]): 30% | RI (recovery index) (dogs): 0.55 min | Onset (dogs): 0.75 min
